Assays:
[1] = Fraction unbound in rat plasma; assay type: ADME, cell-free
[2] = target: T1, C-C chemokine receptor type 3 (Homo sapiens, UniProt P51677); assay: Binding affinity to human CCR3 receptor
T1 sequence (P51677 whole entry): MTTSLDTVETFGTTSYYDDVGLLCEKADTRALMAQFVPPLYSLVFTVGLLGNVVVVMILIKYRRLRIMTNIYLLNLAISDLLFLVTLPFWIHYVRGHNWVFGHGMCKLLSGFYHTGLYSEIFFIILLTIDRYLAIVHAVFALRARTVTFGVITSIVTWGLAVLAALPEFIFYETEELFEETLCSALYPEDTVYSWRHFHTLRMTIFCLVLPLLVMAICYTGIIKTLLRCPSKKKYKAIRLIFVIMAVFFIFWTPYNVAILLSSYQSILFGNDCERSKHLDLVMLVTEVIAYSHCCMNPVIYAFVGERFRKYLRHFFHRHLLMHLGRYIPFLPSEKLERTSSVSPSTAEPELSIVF

[3] = target: T2, Cytochrome P450 1A2 (Homo sapiens, UniProt P05177); assay: Inhibition of liver CYP1A2; assay type: ADME, tissue-based
T2 sequence (P05177 whole entry): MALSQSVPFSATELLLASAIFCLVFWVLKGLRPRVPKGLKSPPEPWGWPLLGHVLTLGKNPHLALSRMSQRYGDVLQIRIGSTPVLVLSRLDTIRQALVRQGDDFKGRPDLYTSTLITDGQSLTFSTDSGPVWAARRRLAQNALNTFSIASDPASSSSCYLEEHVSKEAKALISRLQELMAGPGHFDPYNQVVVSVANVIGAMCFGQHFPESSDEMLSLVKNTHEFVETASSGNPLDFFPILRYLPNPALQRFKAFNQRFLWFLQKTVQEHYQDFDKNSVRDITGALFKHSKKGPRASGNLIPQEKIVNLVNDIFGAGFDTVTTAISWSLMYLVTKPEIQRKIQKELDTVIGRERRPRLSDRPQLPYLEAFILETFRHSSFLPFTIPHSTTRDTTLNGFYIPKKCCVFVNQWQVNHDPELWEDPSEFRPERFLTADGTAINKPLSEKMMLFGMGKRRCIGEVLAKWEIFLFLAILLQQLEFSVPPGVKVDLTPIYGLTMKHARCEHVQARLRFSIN

[4] = Clearance in rat at 1 mg/kg, iv; assay type: ADME, organism-based; parameters: dose 1 mg/kg, route intravenous; details: in vivo
[5] = target: T3, C-C chemokine receptor type 6 (Homo sapiens, UniProt P51684); assay: Binding affinity to human CCR6 receptor
T3 sequence (P51684 whole entry): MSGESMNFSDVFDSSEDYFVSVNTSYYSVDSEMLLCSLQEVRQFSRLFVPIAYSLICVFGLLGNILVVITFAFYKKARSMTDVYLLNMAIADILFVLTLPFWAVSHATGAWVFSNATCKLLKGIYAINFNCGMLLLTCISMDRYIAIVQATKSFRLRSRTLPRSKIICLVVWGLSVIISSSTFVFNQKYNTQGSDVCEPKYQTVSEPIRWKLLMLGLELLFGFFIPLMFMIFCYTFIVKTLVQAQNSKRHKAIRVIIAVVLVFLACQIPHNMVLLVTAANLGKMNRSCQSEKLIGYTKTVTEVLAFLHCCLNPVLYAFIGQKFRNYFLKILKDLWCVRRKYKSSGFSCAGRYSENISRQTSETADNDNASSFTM

[6] = Cmax in dog at 1 mg/kg, po; assay type: ADME, organism-based, Canis lupus familiaris; parameters: dose 1 mg/kg, route oral; details: in vivo
[7] = target: Cytochrome P450 2C19 (Homo sapiens, UniProt P33261); assay: Inhibition of liver CYP2C19; assay type: ADME, tissue-based
Sequence of Cytochrome P450 2C19 (P33261 whole entry): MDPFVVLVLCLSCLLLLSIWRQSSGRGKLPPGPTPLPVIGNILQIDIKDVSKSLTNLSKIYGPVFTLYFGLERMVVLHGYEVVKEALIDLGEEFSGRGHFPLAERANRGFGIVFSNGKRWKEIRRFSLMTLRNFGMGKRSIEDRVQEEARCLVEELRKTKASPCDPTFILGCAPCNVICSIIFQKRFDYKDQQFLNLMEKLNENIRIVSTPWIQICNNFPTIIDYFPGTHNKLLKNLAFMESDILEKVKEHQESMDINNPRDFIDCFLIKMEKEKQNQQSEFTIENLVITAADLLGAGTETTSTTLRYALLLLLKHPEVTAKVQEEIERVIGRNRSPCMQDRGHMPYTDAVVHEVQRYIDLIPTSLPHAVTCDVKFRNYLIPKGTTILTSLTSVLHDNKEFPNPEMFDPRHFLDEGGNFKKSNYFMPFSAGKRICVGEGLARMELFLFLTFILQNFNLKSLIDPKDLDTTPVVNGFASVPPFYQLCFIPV

[8] = Half life in cynomolgus monkey at 1 mg/kg, iv; assay type: ADME, organism-based, Macaca fascicularis; parameters: dose 1 mg/kg, route intravenous; details: in vivo
[9] = Volume of distribution at steady state in dog at 1 mg/kg, iv; assay type: ADME, organism-based, Canis lupus familiaris; parameters: dose 1 mg/kg, route intravenous; details: in vivo, read-out: Vdss
[10] = AUC in rat at 1 mg/kg, po; assay type: ADME, organism-based; parameters: dose 1 mg/kg, route oral; details: plasma
[11] = Volume of distribution at steady state in cynomolgus monkey at 1 mg/kg, iv; assay type: ADME, organism-based, Macaca fascicularis; parameters: dose 1 mg/kg, route intravenous; details: in vivo, read-out: Vdss
[12] = target: hERG (KCNH2) (Homo sapiens, UniProt Q12809); assay: (§1) Inhibition of human ERG; details: human
Sequence of hERG (KCNH2) (Q12809 whole entry): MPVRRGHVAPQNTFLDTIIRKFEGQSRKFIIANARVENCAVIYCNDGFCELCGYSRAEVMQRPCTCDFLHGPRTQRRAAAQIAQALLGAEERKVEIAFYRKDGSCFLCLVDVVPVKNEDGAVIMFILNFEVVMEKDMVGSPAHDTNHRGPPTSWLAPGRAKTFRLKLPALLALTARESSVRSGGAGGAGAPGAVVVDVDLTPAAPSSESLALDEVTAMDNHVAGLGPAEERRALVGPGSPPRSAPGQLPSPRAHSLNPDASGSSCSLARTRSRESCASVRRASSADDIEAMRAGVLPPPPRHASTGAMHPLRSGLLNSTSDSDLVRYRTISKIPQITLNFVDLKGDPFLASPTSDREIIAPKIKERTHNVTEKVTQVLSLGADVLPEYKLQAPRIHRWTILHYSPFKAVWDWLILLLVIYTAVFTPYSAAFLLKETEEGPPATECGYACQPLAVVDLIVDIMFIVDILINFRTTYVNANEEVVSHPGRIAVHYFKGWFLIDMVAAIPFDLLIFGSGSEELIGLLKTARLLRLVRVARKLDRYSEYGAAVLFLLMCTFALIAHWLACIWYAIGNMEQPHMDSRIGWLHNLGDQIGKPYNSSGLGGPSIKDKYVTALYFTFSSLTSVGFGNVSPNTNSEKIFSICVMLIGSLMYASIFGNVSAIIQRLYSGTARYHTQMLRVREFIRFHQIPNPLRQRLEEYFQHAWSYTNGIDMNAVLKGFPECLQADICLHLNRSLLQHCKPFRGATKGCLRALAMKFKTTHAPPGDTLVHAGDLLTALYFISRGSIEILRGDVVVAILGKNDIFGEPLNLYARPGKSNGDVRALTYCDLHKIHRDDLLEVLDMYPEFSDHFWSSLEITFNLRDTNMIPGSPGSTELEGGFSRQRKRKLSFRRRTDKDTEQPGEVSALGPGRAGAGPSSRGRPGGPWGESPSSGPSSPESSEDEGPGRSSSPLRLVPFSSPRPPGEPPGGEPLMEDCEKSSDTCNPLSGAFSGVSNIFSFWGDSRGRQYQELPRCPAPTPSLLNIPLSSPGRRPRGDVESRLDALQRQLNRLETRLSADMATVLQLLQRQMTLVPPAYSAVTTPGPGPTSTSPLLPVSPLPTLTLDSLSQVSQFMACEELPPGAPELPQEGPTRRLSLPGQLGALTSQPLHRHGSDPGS

[13] = target: Voltage-gated inwardly rectifying potassium channel KCNH2 (Homo sapiens, UniProt Q12809); assay: as §1
Sequence of Voltage-gated inwardly rectifying potassium channel KCNH2 (Q12809 whole entry): as above

[14] = AUC in dog at 1 mg/kg, po; assay type: ADME, organism-based, Canis lupus familiaris; parameters: dose 1 mg/kg, route oral; details: plasma
[15] = target: C-C chemokine receptor type 2 (Homo sapiens, UniProt P41597); assay: Binding affinity to human CCR2b receptor
Sequence of C-C chemokine receptor type 2 (P41597 whole entry): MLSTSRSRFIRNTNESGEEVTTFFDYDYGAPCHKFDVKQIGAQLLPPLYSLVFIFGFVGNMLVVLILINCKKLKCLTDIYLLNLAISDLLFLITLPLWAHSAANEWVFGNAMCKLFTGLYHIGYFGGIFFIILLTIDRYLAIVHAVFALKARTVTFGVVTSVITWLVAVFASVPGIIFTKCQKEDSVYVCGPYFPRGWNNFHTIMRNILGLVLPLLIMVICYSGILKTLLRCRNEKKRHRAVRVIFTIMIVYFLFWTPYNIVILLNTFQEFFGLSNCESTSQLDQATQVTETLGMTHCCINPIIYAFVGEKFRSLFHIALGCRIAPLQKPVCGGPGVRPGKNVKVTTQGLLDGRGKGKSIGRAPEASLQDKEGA

[16] = target: T4, C-C chemokine receptor type 1 (Homo sapiens, UniProt P32246); assay: Binding affinity to human CCR1 receptor
T4 sequence (P32246 whole entry): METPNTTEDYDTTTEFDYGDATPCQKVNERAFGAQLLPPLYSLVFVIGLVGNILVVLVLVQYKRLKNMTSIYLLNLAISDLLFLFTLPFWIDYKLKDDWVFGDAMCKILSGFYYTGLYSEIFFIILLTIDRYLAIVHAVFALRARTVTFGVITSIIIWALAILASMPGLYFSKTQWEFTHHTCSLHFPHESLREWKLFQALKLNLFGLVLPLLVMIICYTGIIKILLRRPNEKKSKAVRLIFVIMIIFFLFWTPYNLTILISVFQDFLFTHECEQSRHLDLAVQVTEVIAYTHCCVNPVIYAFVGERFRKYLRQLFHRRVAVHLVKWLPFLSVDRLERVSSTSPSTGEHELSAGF

[17] = system: Canis familiaris; assay: Clearance in dog at 1 mg/kg, iv; assay type: ADME, organism-based, Canis lupus familiaris; parameters: dose 1 mg/kg, route intravenous; details: in vivo
[18] = Cmax in cynomolgus monkey at 1 mg/kg, po; assay type: ADME, organism-based, Macaca fascicularis; parameters: dose 1 mg/kg, route oral; details: in vivo
[19] = target: Cytochrome P450 2C9 (Homo sapiens, UniProt P11712); assay: Inhibition of liver CYP2C9; assay type: ADME, tissue-based
Sequence of Cytochrome P450 2C9 (P11712 whole entry): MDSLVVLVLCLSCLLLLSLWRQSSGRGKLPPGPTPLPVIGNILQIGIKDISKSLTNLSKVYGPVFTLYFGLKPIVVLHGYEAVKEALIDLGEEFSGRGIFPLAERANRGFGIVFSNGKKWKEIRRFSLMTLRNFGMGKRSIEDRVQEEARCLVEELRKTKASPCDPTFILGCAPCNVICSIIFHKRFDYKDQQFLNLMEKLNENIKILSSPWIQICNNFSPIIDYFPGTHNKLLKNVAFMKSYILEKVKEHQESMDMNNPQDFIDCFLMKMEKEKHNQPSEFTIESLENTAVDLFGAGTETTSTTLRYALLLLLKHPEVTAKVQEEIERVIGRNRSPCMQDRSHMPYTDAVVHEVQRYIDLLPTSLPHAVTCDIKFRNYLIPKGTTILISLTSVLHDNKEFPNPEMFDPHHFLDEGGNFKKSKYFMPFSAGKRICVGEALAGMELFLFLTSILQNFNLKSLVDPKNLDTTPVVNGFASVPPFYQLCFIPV

[20] = Fraction unbound in monkey plasma; assay type: ADME, cell-free, Macaca mulatta; details: rhesus monkey
[21] = Oral bioavailability in cynomolgus monkey at 1 mg/kg, po; assay type: ADME, organism-based, Macaca fascicularis; details: in vivo
[22] = system: Human immunodeficiency virus 1; assay: Antiviral activity against recombinant HIV1 virus infected in human JC53BL cells after 3 days; assay type: functional, organism-based; details: Human immunodeficiency virus 1, JC53BL, 72 h
[23] = Oral bioavailability in rat at 1 mg/kg, po; assay type: ADME, organism-based; details: in vivo
[24] = Intrinsic clearance in human liver microsomes assessed per mg of protein; assay type: ADME, Microsome; details: liver microsomes
[25] = target: Cytochrome P450 3A4 (Homo sapiens, UniProt P08684); assay: Inhibition of liver CYP3A4; assay type: ADME, tissue-based
Sequence of Cytochrome P450 3A4 (P08684 whole entry): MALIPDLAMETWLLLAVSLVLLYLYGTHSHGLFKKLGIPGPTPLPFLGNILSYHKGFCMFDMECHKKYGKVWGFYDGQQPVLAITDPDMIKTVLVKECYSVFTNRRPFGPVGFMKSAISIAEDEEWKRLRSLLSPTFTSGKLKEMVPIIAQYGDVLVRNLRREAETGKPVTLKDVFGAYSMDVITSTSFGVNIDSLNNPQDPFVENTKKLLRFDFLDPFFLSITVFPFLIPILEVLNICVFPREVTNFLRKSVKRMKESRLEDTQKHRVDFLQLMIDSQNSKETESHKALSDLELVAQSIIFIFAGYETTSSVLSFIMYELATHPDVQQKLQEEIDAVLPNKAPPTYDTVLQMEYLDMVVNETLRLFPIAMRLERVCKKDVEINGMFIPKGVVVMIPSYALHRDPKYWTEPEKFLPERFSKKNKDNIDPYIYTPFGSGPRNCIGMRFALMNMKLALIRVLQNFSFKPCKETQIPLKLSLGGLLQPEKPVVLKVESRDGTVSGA

[26] = Half life in dog at 1 mg/kg, iv; assay type: ADME, organism-based, Canis lupus familiaris; parameters: dose 1 mg/kg, route intravenous; details: in vivo
[27] = Clearance in cynomolgus monkey at 1 mg/kg, iv; assay type: ADME, organism-based, Macaca fascicularis; parameters: dose 1 mg/kg, route intravenous; details: in vivo
[28] = Fraction unbound in dog plasma; assay type: ADME, cell-free, Canis lupus familiaris
[29] = Oral bioavailability in dog at 1 mg/kg, po; assay type: ADME, organism-based, Canis lupus familiaris; details: in vivo
[30] = Half life in rat at 1 mg/kg, iv; assay type: ADME, organism-based; parameters: dose 1 mg/kg, route intravenous; details: in vivo
[31] = target: C-C chemokine receptor type 5 (Homo sapiens, UniProt P51681); assay: Displacement of [125I]RANTES from human CCR5 receptor co-transfected with Galphai6 in CHO cells; assay type: cell-based
[32] = system: Human immunodeficiency virus; assay: Antiviral activity against R5-tropic HIV Ba-L infected in human PBMC cells assessed as inhibition of viral replication; assay type: functional, organism-based; details: Human immunodeficiency virus 1, Ba-L
[33] = target: Cytochrome P450 2D6 (Homo sapiens, UniProt P10635); assay: Inhibition of liver CYP2D6; assay type: ADME, tissue-based
Sequence of Cytochrome P450 2D6 (P10635 whole entry): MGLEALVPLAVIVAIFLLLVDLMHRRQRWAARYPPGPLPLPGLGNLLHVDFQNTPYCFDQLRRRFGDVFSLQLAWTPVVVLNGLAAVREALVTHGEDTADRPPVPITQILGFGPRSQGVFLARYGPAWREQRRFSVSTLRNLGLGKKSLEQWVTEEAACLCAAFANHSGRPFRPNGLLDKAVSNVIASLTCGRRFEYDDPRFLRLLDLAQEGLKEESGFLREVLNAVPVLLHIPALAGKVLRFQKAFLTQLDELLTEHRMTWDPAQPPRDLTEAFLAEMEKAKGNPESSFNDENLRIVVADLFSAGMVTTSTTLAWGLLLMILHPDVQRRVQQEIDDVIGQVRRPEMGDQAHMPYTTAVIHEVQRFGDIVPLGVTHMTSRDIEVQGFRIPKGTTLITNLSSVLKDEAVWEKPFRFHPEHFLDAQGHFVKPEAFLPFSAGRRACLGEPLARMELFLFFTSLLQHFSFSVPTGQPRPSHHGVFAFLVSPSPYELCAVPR

[34] = AUC in cynomolgus monkey at 1 mg/kg, po; assay type: ADME, organism-based, Macaca fascicularis; parameters: dose 1 mg/kg, route oral; details: plasma
[35] = Volume of distribution at steady state in rat at 1 mg/kg, iv; assay type: ADME, organism-based; parameters: dose 1 mg/kg, route intravenous; details: in vivo, read-out: Vdss
[36] = target: T5, C-C chemokine receptor type 4 (Homo sapiens, UniProt P51679); assay: Binding affinity to human CCR4 receptor
T5 sequence (P51679 whole entry): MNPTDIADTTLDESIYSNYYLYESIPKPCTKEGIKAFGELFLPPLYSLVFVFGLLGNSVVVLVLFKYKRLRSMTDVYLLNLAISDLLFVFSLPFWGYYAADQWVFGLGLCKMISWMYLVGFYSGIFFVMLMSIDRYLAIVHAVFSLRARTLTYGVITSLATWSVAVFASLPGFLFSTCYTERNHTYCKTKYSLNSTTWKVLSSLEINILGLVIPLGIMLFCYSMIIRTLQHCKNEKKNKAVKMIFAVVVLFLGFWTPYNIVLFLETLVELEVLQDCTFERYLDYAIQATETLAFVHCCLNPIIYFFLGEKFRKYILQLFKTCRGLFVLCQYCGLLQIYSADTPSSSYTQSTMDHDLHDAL

[37] = Cmax in rat at 1 mg/kg, po; assay type: ADME, organism-based; parameters: dose 1 mg/kg, route oral; details: in vivo
[38] = target: C-X-C chemokine receptor type 4 (Homo sapiens, UniProt P61073); assay: Binding affinity to human CXCR4
Sequence of C-X-C chemokine receptor type 4 (P61073 whole entry): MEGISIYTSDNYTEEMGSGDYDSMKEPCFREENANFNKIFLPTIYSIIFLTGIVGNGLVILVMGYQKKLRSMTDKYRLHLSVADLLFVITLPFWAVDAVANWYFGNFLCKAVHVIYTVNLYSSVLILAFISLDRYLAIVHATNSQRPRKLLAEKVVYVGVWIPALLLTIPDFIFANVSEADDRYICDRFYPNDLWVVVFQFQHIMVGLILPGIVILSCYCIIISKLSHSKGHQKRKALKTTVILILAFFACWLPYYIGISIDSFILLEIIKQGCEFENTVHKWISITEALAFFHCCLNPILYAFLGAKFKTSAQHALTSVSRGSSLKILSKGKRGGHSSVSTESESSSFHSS

- fraction unbound [1]: 0.32
- IC50 [2]: > 50 µM
- Activity [3]: Not Active
- clearance [4]: 52 mL/min/kg
- IC50 [5]: > 50 µM
- Cmax [6]: 225 ng/mL
- Activity [7]: Not Active
- half-life [8]: 210 min
- Vd [9]: 3.2 L/kg
- AUC [10]: 54 ng·h/mL
- Vd [11]: 3 L/kg
- AUC [14]: 700 ng·h/mL
- IC50 [15]: > 50 µM
- IC50 [16]: > 50 µM
- clearance [17]: 20 mL/min/kg
- Cmax [18]: 42 ng/mL
- Activity [19]: Not Active
- fraction unbound [20]: 0.04
- bioavailability [21]: 42%
- IC50 [22]: 6 nM
- bioavailability [23]: 10%
- microsomal CLint [24]: 12 µL/min/mg
- Activity [25]: Not Active
- half-life [26]: 174 min
- clearance [27]: 19 mL/min/kg
- fraction unbound [28]: 0.13
- bioavailability [29]: 85%
- half-life [30]: 84 min
- IC50 [31]: 25 nM
- IC50 [32]: 0.18 nM
- Activity [33]: Not Active
- AUC [34]: 396 ng·h/mL
- Vd [35]: 3.8 L/kg
- IC50 [36]: > 50 µM
- Cmax [37]: 13 ng/mL
- IC50 [38]: > 50 µM
SMILES: CCCC[C@H]1CN(CC2CCOCC2)C(=O)OC12CCN(C1(C)CCN(C(=O)c3c(C)ncnc3C)CC1)CC2
- IC20 [12]: 2900 nM
- IC50 [13]: 11.9 µM

From ChEMBL document CHEMBL1154224, “Spiropiperidine CCR5 antagonists” (Bioorg Med Chem Lett, 2009)
